Laboratory results: ChEMBL document CHEMBL4616640, “Discovery of novel pyrrole derivatives as potent agonists for the niacin receptor GPR109A” (Bioorg Med Chem Lett, 2020)

Assay: AUC (0 to 7 hrs) in rat at 10 mg/kg, po
Format: ADME, organism-based
Set-up: dose 10 mg/kg, time < 7 hr, route oral
Details: in vivo

## CCCCn1cc(NC(=O)CCc2nc(-c3ccc(O)cn3)no2)c(C(=O)O)c1
  AUC(0-t) at 7 h: 630 ng·h/mL
